Reference: the supplement of paper PMC10307832

Legend:
Assay in all cases: relative viability (nuclei count vs DMSO), 5 days (fraction); higher = more cells survive
[1] = compound: CCn1c(-c2nonc2N)nc2c(C#CC(C)(C)O)ncc(OC[C@H]3CCCNC3)c21 + COc1cc2c(Oc3ccc(NC(=O)C4(C(=O)Nc5ccc(F)cc5)CC4)cc3F)ccnc2cc1OCCCN1CCOCC1 [Foretinib] (partner 0.25 µM)
Summary of the method: (§1)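 Lung cancer cell lines in 1536-well plates got either a single drug or a fixed anchor-drug dose together with five library-drug doses (not always all listed) in √10 steps, by pin tool, on the day after seeding. Nuclei were counted after 5 days, and relative viability is the treated-to-vehicle ratio of nuclei counts. Values are medians of duplicate plates.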

[2] = compound: CCn1c(-c2nonc2N)nc2c(C#CC(C)(C)O)ncc(OC[C@H]3CCCNC3)c21 + CS(=O)(=O)N1CCN(Cc2cc3nc(-c4cccc5[nH]ncc45)nc(N4CCOCC4)c3s2)CC1 [Pictilisib] (partner 1 µM)
Summary of the method: as §1

[3] = compound: CCn1c(-c2nonc2N)nc2c(C#CC(C)(C)O)ncc(OC[C@H]3CCCNC3)c21 + CCNC(=O)c1noc(-c2cc(C(C)C)c(O)cc2O)c1-c1ccc(CN2CCOCC2)cc1 [Luminespib] (partner 0.01 µM)
Summary of the method: as §1

[4] = compound: CCn1c(-c2nonc2N)nc2c(C#CC(C)(C)O)ncc(OC[C@H]3CCCNC3)c21 + C[C@]1(O)C[C@@H](c2nc(-c3ccc4ccc(-c5ccccc5)nc4c3)c3c(N)nccn32)C1 [Linsitinib] (partner 1 µM)
Summary of the method: as §1

UMC-11
relative viability ([1]; first compound 0.01 µM): 1.01 | relative viability ([1]; first compound 0.03162 µM): 1.06 | relative viability ([1]; first compound 0.1 µM): 1.01 | relative viability ([1]; first compound 0.3162 µM): 0.931 | relative viability ([1]; first compound 1 µM): 1.04 | relative viability ([2]; first compound 0.01 µM): 0.778 | relative viability ([2]; first compound 0.03162 µM): 0.681 | relative viability ([2]; first compound 0.1 µM): 0.771 | relative viability ([2]; first compound 0.3162 µM): 0.758 | relative viability ([2]; first compound 1 µM): 0.935 | relative viability ([3]; first compound 0.01 µM): 0.97 | relative viability ([3]; first compound 0.03162 µM): 0.922 | relative viability ([3]; first compound 0.1 µM): 0.991 | relative viability ([3]; first compound 0.3162 µM): 0.956 | relative viability ([3]; first compound 1 µM): 1 | relative viability ([4]; first compound 0.01 µM): 0.991 | relative viability ([4]; first compound 0.03162 µM): 1.05 | relative viability ([4]; first compound 0.1 µM): 0.974 | relative viability ([4]; first compound 0.3162 µM): 0.976 | relative viability ([4]; first compound 1 µM): 1.04
